{"source": "patent US4826837A", "about": "“Cinnoline-carboxamides and process for their preparation” (Farmitalia Carlo Erba s.r.l., priority 1987, dated 1989)", "key": {"[1]": {"test_system": "TU5 tumoral cells", "assay": "Macrophage cytotoxic activity towards TU5 tumoral cells (peritoneal cells of mice treated i.p., collected seven days later and incubated with tumor target cells)", "assay_type": "cell-based, mouse", "conditions": "peritoneal cells collected 7 days later, 48 h incubation with TU5 tumoral cells, colorimetric at 570 nm", "experimental": "The experimental procedure to evaluate this activity is as follows: groups of 4 mice are treated i.p. with the tested compounds and then, seven days later, peritoneal cells are collected and plated for 2 hours at 37° C. After this period the walls are washed to eliminate the non adherent cells, tumor target cells are then added and the incubation is prolonged for 48 hours. At the end of this period the target cells viability is evaluated by a colorimetric method and quantified at 570 nm.\nThe following table summarizes the immunostimulating activity data of some compounds of the invention, obtained according to the hereabove experimental procedure, towards TU5 tumoral cells (Eur. J. Immunol. 1982, 12, 320)\nCytotoxic activity is calculated as % inhibition of TU5 tumoral cells growth using the following formula [formula] where\nO.D.A.=optical density from cocultured TU5 and vehicol treated macrophages\nO.D.B.=optical density from vehicol treated macrophages alone\nO.D.C=optical density from cocultured TU5 and FCE compound treated macrophages\nO.D.D=optical density from FCE compound treated macrophages alone."}, "[2]": {"assay": "Approximate acute toxicity (LD50) in the mouse, per os", "conditions": "in vivo, po, single administration of increasing doses, measured on seventh day after the day of treatment", "experimental": "For example, the approximate acute toxicity (LD50) in the mouse of the compound 4-hydroxy-N-(2-pyridyl)-cinnoline-3-carboxamide determined per os with single administration of increasing doses and measured on the seventh day after the day of treatment, is higher than 800 mg/kg. Analogous toxicity data have been found for the other compounds of the invention."}}, "data": [{"smiles": "CN(C(=O)c1nnc2ccccc2c1O)c1ccccn1", "note": "[FCE 25051, 4-hydroxy-N-methyl-N-(2-pyridyl)-cinnoline-3-carboxamide]", "values": [{"measurement": "Macrophage cytotoxic activity (% inhibition)", "setting": "[1]; 50 mg/kg i.p. to mice", "result": 80, "unit": "%"}]}, {"smiles": "O=C(Nc1ccccn1)c1nnc2ccccc2c1O", "note": "[FCE 24089, 4-hydroxy-N-(2-pyridyl)-cinnoline-3-carboxamide]", "values": [{"measurement": "Macrophage cytotoxic activity (% inhibition)", "setting": "[1]; 10 mg/kg i.p. to mice", "result": 90, "unit": "%"}, {"measurement": "LD50 at 168 h", "setting": "[2]", "result": "> 800", "unit": "mg/kg"}]}, {"smiles": "O=C(Nc1ccccc1)c1nnc2ccccc2c1O", "note": "[FCE 25008, 4-hydroxy-N-phenyl-cinnoline-3-carboxamide]", "values": [{"measurement": "Macrophage cytotoxic activity (% inhibition)", "setting": "[1]; 50 mg/kg i.p. to mice", "result": 71, "unit": "%"}]}]}
